Results reported in ChEMBL document CHEMBL4118122, “Identification and biological evaluation of thiazole-based inverse agonists of RORγt” (Bioorg Med Chem Lett, 2018).

Columns and labels:
[1] = Displacement of [125I]alpha-dendrotoxin from rat brain voltage-gated K channel after 60 mins by scintillation counting analysis
Rattus norvegicus = organism: Rattus norvegicus; assay: Displacement of [3H]D 888 from rat brain L-type calcium channel verapamil binding site at 1 uM after 120 mins by scintillation counting analysis relative to control
Mu-type opioid receptor = Mu-type opioid receptor (Homo sapiens, UniProt P35372); assay: Displacement of [3H]DAMGO from human recombinant mu receptor after 120 mins by scintillation counting analysis
[2] = molecular target: Protein kinase C alpha type (Homo sapiens) (UniProt P17252); assay: Inhibition of recombinant full length human PKCalpha expressed in baculovirus expression system at 10 uM in presence of ATP relative to control
[3] = molecular target: 5-hydroxytryptamine receptor 2A (Homo sapiens, UniProt P28223); assay: Displacement of [3H]ketanserin human recombinant 5-HT2A receptor at 1 uM after 60 mins by scintillation counting analysis relative to control
Cytochrome P450 2C9 = Cytochrome P450 2C9 (Homo sapiens, UniProt P11712); assay: Inhibition of CYP2C9 (unknown origin); type: ADME
[4] = molecular target: Kappa-type opioid receptor (Homo sapiens, UniProt P41145); assay: Displacement of [3H]U69593 from human kappa receptor after 60 mins by scintillation counting analysis
[5] = molecular target: Muscarinic acetylcholine receptor M2 (Homo sapiens, UniProt P08172); assay: Displacement of [3H]AF-DX 384 from human recombinant M2 receptor after 60 mins by scintillation counting analysis
[6] = molecular target: T1, Sodium-dependent serotonin transporter (Homo sapiens, UniProt P31645); assay: Displacement of [3H]-imipramine from recombinant human 5-HT transporter after 60 mins by scintillation counting relative to control
Target sequence in this assay (P31645 whole entry): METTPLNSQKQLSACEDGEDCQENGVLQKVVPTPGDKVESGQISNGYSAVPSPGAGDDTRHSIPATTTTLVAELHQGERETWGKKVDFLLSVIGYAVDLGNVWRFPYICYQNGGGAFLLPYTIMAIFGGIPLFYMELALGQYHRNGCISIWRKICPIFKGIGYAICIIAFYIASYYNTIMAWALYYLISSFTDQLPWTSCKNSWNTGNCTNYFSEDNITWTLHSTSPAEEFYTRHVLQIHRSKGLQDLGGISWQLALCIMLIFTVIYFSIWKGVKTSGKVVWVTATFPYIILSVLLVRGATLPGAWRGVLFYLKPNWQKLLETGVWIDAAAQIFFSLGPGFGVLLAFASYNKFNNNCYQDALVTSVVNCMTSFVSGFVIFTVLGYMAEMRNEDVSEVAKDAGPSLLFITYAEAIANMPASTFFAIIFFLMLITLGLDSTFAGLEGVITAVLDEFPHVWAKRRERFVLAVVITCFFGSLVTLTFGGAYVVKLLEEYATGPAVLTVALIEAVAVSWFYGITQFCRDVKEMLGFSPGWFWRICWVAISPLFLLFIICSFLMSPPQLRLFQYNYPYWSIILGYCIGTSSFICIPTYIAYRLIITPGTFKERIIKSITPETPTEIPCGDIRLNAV

[7] = molecular target: Cholecystokinin receptor type A (Homo sapiens) (UniProt P32238); assay: Displacement of [125I]CCK-8s from human recombinant CCK1 receptor at 10 uM after 60 mins by scintillation counting analysis relative to control
[8] = molecular target: T1, Sodium-dependent serotonin transporter; assay: Displacement of [3H]-imipramine from recombinant human 5-HT transporter at 1 uM after 60 mins by scintillation counting relative to control
Target sequence in this assay (P31645 whole entry, looked up): as the sequence (P31645 whole entry) above

[9] = molecular target: Casein kinase I isoform epsilon (Homo sapiens) (UniProt P49674); assay: Inhibition of CK1epsilon (unknown origin) at 10 uM in presence of ATP relative to control
[10] = molecular target: T2, Nuclear receptor ROR-gamma (Homo sapiens, UniProt P51449); assay: Inverse agonist activity at human GAL4 DBD-fused RORgammat LBD (237 to 497 residues) expressed in HEK293T cells assessed as reduction in ROR mediated transcriptional activity after 24 hrs by dual glo luciferase reporter gene assay; type: cell-based
T2 sequence (P51449 whole entry): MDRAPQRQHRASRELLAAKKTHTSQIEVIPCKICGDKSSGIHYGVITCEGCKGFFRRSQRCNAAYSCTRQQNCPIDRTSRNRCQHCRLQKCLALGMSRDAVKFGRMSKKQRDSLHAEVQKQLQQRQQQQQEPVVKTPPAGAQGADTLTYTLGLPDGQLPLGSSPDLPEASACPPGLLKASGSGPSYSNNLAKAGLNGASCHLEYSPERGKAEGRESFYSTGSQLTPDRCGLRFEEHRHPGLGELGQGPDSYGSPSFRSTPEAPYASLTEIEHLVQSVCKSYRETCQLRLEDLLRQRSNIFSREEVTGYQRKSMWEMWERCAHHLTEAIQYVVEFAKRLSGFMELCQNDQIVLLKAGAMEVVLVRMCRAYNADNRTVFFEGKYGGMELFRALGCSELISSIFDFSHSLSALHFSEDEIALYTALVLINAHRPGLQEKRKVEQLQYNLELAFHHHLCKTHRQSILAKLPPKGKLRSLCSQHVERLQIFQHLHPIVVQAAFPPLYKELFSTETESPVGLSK

[11] = molecular target: Muscarinic acetylcholine receptor M3 (Homo sapiens, UniProt P20309); assay: Displacement of [3H]4-DAMP from human recombinant M3 receptor at 1 uM after 60 mins by scintillation counting analysis relative to control
Vasopressin V1a receptor = Vasopressin V1a receptor (Homo sapiens, UniProt P37288); assay: Displacement of [3H]AVP from human recombinant V1a receptor after 60 mins by scintillation counting analysis
[12] = molecular target: 5-hydroxytryptamine receptor 1B (Rattus norvegicus) (UniProt P28564); assay: Displacement of [125I]-CYP from rat brain 5-HT1B receptor at 1 uM after 120 mins by scintillation counting analysis relative to control
D(2) dopamine receptor = D(2) dopamine receptor (Homo sapiens, UniProt P14416); assay: Displacement of [3H]7-OH-DPAT from human recombinant dopamine D2S receptor at 1 uM after 60 mins by scintillation counting analysis relative to control
[13] = molecular target: Tyrosine-protein kinase JAK3 (Homo sapiens) (UniProt P52333); assay: Inhibition of recombinant GST-tagged human JAK3 catalytic domain (781 to 1124 residues) expressed in baculovirus expression system at 10 uM in presence of ATP relative to control
[14] = molecular target: T3, Nuclear receptor ROR-beta (Homo sapiens, UniProt Q92753); assay: Binding affinity to recombinant human RORbeta LBD (201 to 452 residues) expressed in Escherichia coli BL21 (DE3) GOLD by 1,8-ANS dye-based thermofluor assay
T3 sequence (Q92753 whole entry): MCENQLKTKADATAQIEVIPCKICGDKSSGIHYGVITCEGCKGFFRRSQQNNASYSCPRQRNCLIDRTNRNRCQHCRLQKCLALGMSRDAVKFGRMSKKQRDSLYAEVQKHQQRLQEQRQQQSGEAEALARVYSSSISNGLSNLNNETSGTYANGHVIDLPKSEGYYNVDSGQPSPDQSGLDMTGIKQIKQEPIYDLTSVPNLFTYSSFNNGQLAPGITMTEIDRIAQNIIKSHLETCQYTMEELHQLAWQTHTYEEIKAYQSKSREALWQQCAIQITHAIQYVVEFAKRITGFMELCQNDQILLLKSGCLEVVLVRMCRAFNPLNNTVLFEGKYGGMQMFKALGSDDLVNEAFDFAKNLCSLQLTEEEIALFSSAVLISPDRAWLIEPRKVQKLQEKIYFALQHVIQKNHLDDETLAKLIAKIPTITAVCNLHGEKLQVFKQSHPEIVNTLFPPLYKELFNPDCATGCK

[15] = molecular target: Galanin receptor type 2 (Homo sapiens) (UniProt O43603); assay: Displacement of [125I]-endothelin-1 from human recombinant GAL2 receptor at 10 uM after 120 mins by scintillation counting analysis relative to control
[16] = molecular target: NT-3 growth factor receptor (Homo sapiens) (UniProt Q16288); assay: Inhibition of recombinant full length His-tagged human NTRK3 (510 to 825 residues) cytoplasmic domain expressed in baculovirus expression system at 10 uM in presence of ATP relative to control

Chain of Kappa-type opioid receptor (P41145 whole entry): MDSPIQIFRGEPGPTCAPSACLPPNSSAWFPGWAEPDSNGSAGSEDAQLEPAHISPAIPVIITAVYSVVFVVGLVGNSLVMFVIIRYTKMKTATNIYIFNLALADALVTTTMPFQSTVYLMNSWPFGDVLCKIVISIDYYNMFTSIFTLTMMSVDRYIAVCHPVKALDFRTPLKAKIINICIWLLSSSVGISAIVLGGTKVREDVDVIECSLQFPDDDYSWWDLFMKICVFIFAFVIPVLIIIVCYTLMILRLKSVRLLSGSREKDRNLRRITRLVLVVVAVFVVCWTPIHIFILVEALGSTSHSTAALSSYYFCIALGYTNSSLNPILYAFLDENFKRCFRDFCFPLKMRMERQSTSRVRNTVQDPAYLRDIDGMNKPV
Chain of 5-hydroxytryptamine receptor 2A (P28223 whole entry): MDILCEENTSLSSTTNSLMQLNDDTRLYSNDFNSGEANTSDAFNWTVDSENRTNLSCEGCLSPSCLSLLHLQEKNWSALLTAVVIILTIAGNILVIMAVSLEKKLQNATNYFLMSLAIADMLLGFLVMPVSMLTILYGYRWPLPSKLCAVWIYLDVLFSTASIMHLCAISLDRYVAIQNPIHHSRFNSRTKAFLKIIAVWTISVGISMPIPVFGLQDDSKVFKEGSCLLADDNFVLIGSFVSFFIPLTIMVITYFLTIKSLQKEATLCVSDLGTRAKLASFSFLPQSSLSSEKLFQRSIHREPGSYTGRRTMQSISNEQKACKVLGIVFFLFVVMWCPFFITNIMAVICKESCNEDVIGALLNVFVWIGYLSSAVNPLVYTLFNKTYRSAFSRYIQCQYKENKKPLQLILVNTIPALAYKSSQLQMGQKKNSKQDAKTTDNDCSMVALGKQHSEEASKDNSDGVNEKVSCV
Chain of Vasopressin V1a receptor (P37288 whole entry): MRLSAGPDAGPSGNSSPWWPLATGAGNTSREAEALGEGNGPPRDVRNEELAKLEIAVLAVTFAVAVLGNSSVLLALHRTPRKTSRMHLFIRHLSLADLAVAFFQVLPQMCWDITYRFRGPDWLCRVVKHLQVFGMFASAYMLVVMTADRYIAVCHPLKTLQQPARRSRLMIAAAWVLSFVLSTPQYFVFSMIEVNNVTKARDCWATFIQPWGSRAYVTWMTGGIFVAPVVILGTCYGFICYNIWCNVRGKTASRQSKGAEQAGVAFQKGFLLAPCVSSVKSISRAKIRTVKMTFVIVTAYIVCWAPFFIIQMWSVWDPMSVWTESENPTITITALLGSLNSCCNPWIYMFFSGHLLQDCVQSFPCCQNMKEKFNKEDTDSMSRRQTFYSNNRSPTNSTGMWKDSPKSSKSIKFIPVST
Chain of Mu-type opioid receptor (P35372 whole entry): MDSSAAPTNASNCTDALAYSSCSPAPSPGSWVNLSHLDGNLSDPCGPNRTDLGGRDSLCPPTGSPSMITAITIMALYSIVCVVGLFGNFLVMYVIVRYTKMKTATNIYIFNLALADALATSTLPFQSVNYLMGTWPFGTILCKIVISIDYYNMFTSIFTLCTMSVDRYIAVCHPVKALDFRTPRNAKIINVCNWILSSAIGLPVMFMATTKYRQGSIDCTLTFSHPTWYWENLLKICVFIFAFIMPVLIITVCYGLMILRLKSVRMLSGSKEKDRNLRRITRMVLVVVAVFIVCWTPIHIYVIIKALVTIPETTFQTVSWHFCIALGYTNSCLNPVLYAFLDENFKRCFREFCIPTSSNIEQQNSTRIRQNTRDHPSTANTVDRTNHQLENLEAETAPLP
Chain of Cholecystokinin receptor type A (Homo sapiens) (P32238 whole entry): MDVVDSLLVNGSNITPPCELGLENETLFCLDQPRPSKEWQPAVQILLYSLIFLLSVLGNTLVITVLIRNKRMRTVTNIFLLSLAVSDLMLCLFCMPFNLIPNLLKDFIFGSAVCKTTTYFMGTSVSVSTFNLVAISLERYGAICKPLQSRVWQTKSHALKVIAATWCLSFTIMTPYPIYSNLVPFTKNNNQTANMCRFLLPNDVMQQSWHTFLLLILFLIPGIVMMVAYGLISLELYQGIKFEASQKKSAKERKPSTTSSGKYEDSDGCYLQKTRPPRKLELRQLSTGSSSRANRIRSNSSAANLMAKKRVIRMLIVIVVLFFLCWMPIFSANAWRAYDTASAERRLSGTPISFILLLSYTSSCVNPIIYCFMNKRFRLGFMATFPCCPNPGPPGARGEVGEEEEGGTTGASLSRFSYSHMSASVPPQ
Chain of D(2) dopamine receptor (P14416 whole entry, the tested form may be a part): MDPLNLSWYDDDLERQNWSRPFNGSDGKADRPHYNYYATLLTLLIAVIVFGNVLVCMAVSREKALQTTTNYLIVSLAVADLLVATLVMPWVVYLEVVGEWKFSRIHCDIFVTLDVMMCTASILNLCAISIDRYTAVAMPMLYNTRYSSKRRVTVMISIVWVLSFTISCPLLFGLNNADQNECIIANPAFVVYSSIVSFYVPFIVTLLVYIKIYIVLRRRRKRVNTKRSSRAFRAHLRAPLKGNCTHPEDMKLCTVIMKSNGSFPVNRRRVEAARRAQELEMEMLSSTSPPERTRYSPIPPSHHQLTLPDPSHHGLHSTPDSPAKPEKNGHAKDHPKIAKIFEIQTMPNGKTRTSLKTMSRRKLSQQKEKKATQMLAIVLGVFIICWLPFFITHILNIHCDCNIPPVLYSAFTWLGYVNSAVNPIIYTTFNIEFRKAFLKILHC
Chain of Muscarinic acetylcholine receptor M2 (P08172 whole entry): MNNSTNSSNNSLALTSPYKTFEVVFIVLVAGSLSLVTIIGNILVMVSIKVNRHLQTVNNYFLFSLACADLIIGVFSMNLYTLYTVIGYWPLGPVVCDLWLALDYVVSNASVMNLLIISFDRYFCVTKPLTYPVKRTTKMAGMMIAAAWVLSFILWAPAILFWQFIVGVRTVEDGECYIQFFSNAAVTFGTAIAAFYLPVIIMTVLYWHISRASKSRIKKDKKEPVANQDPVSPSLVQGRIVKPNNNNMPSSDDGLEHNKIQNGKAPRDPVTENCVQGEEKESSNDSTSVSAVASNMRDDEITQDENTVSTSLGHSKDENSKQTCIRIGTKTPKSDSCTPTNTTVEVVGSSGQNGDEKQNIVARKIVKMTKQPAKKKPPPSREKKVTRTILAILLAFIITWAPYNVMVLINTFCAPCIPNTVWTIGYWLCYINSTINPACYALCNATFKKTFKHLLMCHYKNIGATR

For `CC(C)(C)NS(=O)(=O)c1ccc(-c2sc(C(=O)N[C@H]3C[C@H](C(=O)O)C3)nc2CC2CCCCC2)c2ccccc12`, the IC50 [1] was 0.22 nM, the inhibition (Rattus norvegicus) was under 10% and the IC50 (Mu-type opioid receptor) was 1.1 nM. For the same molecule, the inhibition [2] was -1%, the inhibition [3] was under 10% and the INH (Cytochrome P450 2C9) was 9.9 µM. For the same molecule, the IC50 [4] was 1.1 nM, the IC50 [5] was 48 nM and the IC50 [6] was 1.7 nM. It also gave an inhibition [7] of 54%, an inhibition [8] of under 10% and an inhibition [9] of 4%. The IC50 [10] was 0.94 nM, the inhibition [11] was under 10% and the IC50 (Vasopressin V1a receptor) was 1.1 nM. It also gave an inhibition [12] of under 10%, an inhibition (D(2) dopamine receptor) of under 10% and an inhibition [13] of -3%. For the same molecule, the Kd [14] was 740 nM, the inhibition [15] was under 10% and the inhibition [16] was -10%.
